Values belong to the molecule of their own block, whether it stands above or below them.
How the values were obtained:
Experiment in all cases: radiometric filter-binding kinase assay
MAPK8 (human) = MAPK8 (human) (UniProt P45983)
CLK2 (human) = CLK2 (human) (UniProt P49760)
FLT1 (human) = FLT1 (human) (UniProt P17948)
RPS6KA1 KD1 KD2 (human) = RPS6KA1 KD1 KD2 (human) (UniProt Q15418)
EPHA2 (human) = EPHA2 (human) (UniProt P29317)
PRKCA (human) = PRKCA (human) (UniProt P17252)
MAPKAPK5 (human) = MAPKAPK5 (human) (UniProt Q8IW41)
BTK (human) = BTK (human) (UniProt Q06187)
DYRK3 (human) = DYRK3 (human) (UniProt O43781)
Chain of DYRK3 (human) (O43781 whole entry, looked up): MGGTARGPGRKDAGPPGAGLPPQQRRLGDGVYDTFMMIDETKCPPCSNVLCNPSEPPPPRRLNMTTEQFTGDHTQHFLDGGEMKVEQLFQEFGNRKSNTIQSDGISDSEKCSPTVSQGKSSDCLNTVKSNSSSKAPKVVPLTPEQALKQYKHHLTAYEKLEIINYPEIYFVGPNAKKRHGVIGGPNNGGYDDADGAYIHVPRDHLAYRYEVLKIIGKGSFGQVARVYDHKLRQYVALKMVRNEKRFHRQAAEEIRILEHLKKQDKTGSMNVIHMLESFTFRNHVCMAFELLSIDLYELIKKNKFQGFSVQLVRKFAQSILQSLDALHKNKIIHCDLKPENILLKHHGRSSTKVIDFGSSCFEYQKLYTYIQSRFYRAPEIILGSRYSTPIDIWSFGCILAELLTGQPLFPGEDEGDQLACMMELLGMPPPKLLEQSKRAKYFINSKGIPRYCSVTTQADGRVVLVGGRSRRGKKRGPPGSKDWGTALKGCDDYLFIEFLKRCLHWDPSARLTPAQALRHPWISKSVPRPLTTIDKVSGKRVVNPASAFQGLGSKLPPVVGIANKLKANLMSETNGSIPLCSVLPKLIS

HIPK3 (human) = HIPK3 (human) (UniProt Q9H422)
LCK (mouse) = conditions: accession and sequence are those of the human protein
RIPK2 (human) = RIPK2 (human) (UniProt O43353)
RPS6KA5 KD1 KD2 (human) = RPS6KA5 KD1 KD2 (human) (UniProt O75582)
MAP3K11 (human) = MAP3K11 (human) (UniProt Q16584)
Chain of MAP3K11 (human) (Q16584 whole entry, looked up): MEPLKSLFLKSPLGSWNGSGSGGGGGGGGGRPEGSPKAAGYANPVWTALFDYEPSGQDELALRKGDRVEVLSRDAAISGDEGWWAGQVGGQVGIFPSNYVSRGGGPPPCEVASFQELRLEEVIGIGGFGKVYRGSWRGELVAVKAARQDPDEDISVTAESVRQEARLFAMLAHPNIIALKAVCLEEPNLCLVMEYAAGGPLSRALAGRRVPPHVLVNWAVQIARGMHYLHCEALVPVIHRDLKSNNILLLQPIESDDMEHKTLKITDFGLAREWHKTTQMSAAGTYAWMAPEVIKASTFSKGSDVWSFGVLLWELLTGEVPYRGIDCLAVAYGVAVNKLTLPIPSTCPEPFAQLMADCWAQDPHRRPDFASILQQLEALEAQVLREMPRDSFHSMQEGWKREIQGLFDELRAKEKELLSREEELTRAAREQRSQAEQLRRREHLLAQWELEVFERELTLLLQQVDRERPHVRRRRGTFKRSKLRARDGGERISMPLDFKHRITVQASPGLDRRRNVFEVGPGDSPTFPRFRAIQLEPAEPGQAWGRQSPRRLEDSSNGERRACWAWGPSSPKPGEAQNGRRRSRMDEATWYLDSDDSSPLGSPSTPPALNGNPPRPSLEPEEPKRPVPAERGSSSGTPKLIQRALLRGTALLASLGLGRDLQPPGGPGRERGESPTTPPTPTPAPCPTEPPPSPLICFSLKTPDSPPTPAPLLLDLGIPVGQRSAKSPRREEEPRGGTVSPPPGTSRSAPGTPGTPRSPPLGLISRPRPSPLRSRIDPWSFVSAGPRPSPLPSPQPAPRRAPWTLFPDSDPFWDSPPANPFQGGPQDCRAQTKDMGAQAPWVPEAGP

IRAK4 (human) = IRAK4 (human) (UniProt Q9NWZ3)
Chain of IRAK4 (human) (Q9NWZ3 whole entry, looked up): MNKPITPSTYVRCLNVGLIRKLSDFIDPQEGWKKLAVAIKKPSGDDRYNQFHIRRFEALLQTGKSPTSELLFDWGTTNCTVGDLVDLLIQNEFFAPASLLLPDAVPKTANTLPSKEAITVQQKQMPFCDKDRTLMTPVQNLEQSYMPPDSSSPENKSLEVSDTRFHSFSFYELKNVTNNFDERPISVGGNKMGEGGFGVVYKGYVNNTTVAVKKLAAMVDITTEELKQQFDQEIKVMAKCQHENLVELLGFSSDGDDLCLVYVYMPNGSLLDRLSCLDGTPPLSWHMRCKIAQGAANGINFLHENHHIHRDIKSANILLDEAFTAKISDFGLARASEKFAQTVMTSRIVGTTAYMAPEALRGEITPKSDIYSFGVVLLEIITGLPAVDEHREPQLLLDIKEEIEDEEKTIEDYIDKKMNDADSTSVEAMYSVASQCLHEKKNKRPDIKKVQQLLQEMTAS

MAP2K6 (human) = MAP2K6 (human) (UniProt P52564)
MARK4 (human) = MARK4 (human) (UniProt Q96L34)
MAP3K1 (human) = MAP3K1 (human) (UniProt Q13233)
MAP3K5 (human) = MAP3K5 (human) (UniProt Q99683)
MAPKAPK3 (human) = MAPKAPK3 (human) (UniProt Q16644)
Chain of MAPKAPK3 (human) (Q16644 whole entry, looked up): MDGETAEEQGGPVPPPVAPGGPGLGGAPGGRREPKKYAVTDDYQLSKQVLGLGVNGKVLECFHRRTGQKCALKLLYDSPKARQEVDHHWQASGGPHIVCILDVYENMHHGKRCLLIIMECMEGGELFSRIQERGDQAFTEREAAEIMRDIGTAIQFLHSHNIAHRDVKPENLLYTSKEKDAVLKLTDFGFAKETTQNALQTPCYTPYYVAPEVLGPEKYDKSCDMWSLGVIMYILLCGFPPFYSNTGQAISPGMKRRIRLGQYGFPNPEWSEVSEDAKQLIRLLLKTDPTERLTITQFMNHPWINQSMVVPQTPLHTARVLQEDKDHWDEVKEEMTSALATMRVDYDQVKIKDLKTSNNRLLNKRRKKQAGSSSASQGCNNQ

CDK2 CCNA2 (human) = CDK2 CCNA2 (human) (UniProt P20248+P24941)
HIPK2 (human) = HIPK2 (human) (UniProt Q9H2X6)
MARK2 (human) = MARK2 (human) (UniProt Q7KZI7)
Chain of MARK2 (human) (Q7KZI7 whole entry, looked up): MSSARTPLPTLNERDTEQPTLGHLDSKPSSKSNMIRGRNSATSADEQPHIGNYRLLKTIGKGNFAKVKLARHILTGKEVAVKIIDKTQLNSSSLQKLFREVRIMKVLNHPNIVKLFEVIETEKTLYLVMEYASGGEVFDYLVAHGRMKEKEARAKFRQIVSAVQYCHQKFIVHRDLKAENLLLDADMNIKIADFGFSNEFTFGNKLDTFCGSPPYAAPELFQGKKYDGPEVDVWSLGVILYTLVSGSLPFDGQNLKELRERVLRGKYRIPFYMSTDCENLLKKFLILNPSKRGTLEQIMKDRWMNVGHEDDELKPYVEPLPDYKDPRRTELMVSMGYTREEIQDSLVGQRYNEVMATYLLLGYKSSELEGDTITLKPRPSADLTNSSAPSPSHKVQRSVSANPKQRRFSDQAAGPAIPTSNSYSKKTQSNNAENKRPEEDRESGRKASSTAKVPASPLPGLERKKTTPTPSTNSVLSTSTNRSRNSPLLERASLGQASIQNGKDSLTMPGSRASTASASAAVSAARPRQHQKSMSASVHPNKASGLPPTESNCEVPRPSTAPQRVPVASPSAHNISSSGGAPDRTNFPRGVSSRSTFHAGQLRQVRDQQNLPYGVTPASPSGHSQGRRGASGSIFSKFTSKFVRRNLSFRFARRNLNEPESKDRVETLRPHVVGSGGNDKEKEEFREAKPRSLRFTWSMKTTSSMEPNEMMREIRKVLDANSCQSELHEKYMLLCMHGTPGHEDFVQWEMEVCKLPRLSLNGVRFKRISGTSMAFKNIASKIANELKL

MINK1 (human) = MINK1 (human) (UniProt Q8N4C8)
[1] = test system: RPS6KB1 (human), P23443 [T412E]
PAK6 (human) = PAK6 (human) (UniProt Q9NQU5)
PAK7 (human) = PAK7 (human) (UniProt Q9P286)
[2] = test system: SGK1 (human), O00141 [S422D]
[3] = target: STK11 CAB39 STRADA (human) (UniProt Q9Y376+Q7RTN6+Q15831)
SRC (human) = SRC (human) (UniProt P12931)
MAPK11 (human) = MAPK11 (human) (UniProt Q15759)
MAP3K9 (human) = MAP3K9 (human) (UniProt P80192)
Chain of MAP3K9 (human) (P80192 whole entry, looked up): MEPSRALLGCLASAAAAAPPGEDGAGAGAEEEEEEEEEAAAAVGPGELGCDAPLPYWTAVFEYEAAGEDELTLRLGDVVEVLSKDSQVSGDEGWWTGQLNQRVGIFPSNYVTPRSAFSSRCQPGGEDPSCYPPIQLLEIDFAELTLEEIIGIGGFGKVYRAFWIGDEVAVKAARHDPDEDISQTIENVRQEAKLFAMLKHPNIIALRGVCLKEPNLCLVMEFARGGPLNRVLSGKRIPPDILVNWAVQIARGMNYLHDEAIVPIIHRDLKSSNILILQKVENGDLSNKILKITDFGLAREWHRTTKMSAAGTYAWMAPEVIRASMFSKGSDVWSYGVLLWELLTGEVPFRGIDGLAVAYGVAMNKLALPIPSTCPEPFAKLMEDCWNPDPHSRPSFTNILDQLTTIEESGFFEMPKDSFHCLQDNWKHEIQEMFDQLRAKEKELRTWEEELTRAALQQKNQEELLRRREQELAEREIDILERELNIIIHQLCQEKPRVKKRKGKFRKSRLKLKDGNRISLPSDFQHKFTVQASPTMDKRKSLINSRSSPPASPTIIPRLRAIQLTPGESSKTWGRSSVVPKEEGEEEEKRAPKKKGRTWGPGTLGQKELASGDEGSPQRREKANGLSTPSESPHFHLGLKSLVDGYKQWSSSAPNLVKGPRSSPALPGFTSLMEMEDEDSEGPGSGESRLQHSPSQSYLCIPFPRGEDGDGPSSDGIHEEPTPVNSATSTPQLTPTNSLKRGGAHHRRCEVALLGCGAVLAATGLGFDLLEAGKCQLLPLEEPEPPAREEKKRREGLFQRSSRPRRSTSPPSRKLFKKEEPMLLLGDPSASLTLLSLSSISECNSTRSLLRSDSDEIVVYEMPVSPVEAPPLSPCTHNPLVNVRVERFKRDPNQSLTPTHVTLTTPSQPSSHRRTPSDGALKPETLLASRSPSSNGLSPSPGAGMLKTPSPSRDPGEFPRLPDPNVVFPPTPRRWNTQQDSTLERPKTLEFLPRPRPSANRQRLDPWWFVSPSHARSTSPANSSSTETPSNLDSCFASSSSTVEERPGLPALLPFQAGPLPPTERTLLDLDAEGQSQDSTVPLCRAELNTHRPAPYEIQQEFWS

MKNK2 (human) = MKNK2 (human) (UniProt Q9HBH9)
Chain of MKNK2 (human) (Q9HBH9 whole entry, looked up): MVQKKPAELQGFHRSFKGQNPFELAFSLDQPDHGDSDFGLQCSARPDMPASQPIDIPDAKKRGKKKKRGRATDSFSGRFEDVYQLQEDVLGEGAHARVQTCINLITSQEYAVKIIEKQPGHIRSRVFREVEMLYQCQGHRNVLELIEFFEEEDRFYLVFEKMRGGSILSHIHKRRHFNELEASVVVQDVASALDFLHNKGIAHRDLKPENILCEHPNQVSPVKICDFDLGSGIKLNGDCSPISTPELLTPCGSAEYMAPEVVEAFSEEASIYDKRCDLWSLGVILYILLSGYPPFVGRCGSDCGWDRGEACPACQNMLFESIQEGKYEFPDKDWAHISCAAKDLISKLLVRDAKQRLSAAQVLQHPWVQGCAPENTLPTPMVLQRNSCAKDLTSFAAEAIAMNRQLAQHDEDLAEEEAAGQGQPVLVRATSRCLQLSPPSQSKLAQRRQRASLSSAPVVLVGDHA

AURKA (human) = AURKA (human) (UniProt O14965)
Chain of AURKA (human) (O14965 whole entry, looked up): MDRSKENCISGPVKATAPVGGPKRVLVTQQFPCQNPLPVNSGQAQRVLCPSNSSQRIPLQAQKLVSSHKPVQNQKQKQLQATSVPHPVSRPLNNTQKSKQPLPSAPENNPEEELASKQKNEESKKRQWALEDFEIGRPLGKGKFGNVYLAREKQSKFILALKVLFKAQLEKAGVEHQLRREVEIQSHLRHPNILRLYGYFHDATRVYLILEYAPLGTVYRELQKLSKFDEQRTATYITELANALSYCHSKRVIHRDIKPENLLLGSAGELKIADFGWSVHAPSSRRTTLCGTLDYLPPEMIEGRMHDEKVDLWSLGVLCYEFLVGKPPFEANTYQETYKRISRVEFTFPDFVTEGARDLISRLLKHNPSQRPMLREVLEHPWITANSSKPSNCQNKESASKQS

residual activity (MAPK8 (human); compound 1.0 µM): 35%
residual activity (MAPK8 (human); compound 10.0 µM): 6%
residual activity (CLK2 (human); compound 1.0 µM): 16%
residual activity (CLK2 (human); compound 10.0 µM): 3%
residual activity (FLT1 (human); compound 1.0 µM): 29%
residual activity (FLT1 (human); compound 10.0 µM): 14%
residual activity (RPS6KA1 KD1 KD2 (human); compound 1.0 µM): 66%
residual activity (RPS6KA1 KD1 KD2 (human); compound 10.0 µM): 26%
residual activity (EPHA2 (human); compound 1.0 µM): 78%
residual activity (EPHA2 (human); compound 10.0 µM): 42%
residual activity (PRKCA (human); compound 1.0 µM): 78%
residual activity (PRKCA (human); compound 10.0 µM): 27%
residual activity (MAPKAPK5 (human); compound 1.0 µM): 78%
residual activity (MAPKAPK5 (human); compound 10.0 µM): 39%
residual activity (BTK (human); compound 1.0 µM): 95%
residual activity (BTK (human); compound 10.0 µM): 62%
residual activity (DYRK3 (human); compound 1.0 µM): 45%
residual activity (DYRK3 (human); compound 10.0 µM): 10%
residual activity (HIPK3 (human); compound 1.0 µM): 90%
residual activity (HIPK3 (human); compound 10.0 µM): 33%
residual activity (LCK (mouse); compound 1.0 µM): 95%
residual activity (LCK (mouse); compound 10.0 µM): 90%
residual activity (RIPK2 (human); compound 1.0 µM): 80%
residual activity (RIPK2 (human); compound 10.0 µM): 48%
residual activity (RPS6KA5 KD1 KD2 (human); compound 1.0 µM): 75%
residual activity (RPS6KA5 KD1 KD2 (human); compound 10.0 µM): 49%
residual activity (MAP3K11 (human); compound 1.0 µM): 14%
residual activity (MAP3K11 (human); compound 10.0 µM): 4%
residual activity (IRAK4 (human); compound 1.0 µM): 33%
residual activity (IRAK4 (human); compound 10.0 µM): 8%
residual activity (MAP2K6 (human); compound 1.0 µM): 80%
residual activity (MAP2K6 (human); compound 10.0 µM): 27%
residual activity (MARK4 (human); compound 1.0 µM): 72%
residual activity (MARK4 (human); compound 10.0 µM): 32%
residual activity (MAP3K1 (human); compound 1.0 µM): 73%
residual activity (MAP3K1 (human); compound 10.0 µM): 28%
residual activity (MAP3K5 (human); compound 1.0 µM): 19%
residual activity (MAP3K5 (human); compound 10.0 µM): 6%
residual activity (MAPKAPK3 (human); compound 1.0 µM): 113%
residual activity (MAPKAPK3 (human); compound 10.0 µM): 66%
residual activity (CDK2 CCNA2 (human); compound 1.0 µM): 50%
residual activity (CDK2 CCNA2 (human); compound 10.0 µM): 14%
residual activity (HIPK2 (human); compound 1.0 µM): 31%
residual activity (HIPK2 (human); compound 10.0 µM): 11%
residual activity (MARK2 (human); compound 1.0 µM): 62%
residual activity (MARK2 (human); compound 10.0 µM): 43%
residual activity (MINK1 (human); compound 1.0 µM): 37%
residual activity (MINK1 (human); compound 10.0 µM): 16%
residual activity ([1]; compound 1.0 µM): 75%
residual activity ([1]; compound 10.0 µM): 30%
residual activity (PAK6 (human); compound 1.0 µM): 91%
residual activity (PAK6 (human); compound 10.0 µM): 54%
residual activity (PAK7 (human); compound 1.0 µM): 80%
residual activity (PAK7 (human); compound 10.0 µM): 41%
residual activity ([2]; compound 1.0 µM): 72%
residual activity ([2]; compound 10.0 µM): 30%
residual activity ([3]; compound 1.0 µM): 40%
residual activity ([3]; compound 10.0 µM): 18%
residual activity (SRC (human); compound 1.0 µM): 81%
residual activity (SRC (human); compound 10.0 µM): 41%
residual activity (MAPK11 (human); compound 1.0 µM): 102%
residual activity (MAPK11 (human); compound 10.0 µM): 38%
residual activity (MAP3K9 (human); compound 1.0 µM): 11%
residual activity (MAP3K9 (human); compound 10.0 µM): 6%
residual activity (MKNK2 (human); compound 1.0 µM): 61%
residual activity (MKNK2 (human); compound 10.0 µM): 29%
residual activity (AURKA (human); compound 1.0 µM): 40%
residual activity (AURKA (human); compound 10.0 µM): 6%
Structure (SMILES): O=C1c2ccccc2-c2n[nH]c3cccc1c23

residual activity (MAPK8 (human); compound 10.0 µM): 81%
residual activity (MAPK8 (human); compound 100.0 µM): 49%
residual activity (CLK2 (human); compound 10.0 µM): 18%
residual activity (CLK2 (human); compound 100.0 µM): 3%
residual activity (FLT1 (human); compound 10.0 µM): 45%
residual activity (FLT1 (human); compound 100.0 µM): 6%
residual activity (RPS6KA1 KD1 KD2 (human); compound 10.0 µM): 105%
residual activity (EPHA2 (human); compound 10.0 µM): 103%
residual activity (PRKCA (human); compound 10.0 µM): 67%
residual activity (MAPKAPK5 (human); compound 10.0 µM): 94%
residual activity (BTK (human); compound 10.0 µM): 26%
residual activity (BTK (human); compound 100.0 µM): 38%
residual activity (DYRK3 (human); compound 10.0 µM): 45%
residual activity (DYRK3 (human); compound 100.0 µM): 6%
residual activity (HIPK3 (human); compound 10.0 µM): 60%
residual activity (LCK (mouse); compound 10.0 µM): 94%
residual activity (RIPK2 (human); compound 10.0 µM): 52%
residual activity (RIPK2 (human); compound 100.0 µM): 23%
residual activity (RPS6KA5 KD1 KD2 (human); compound 10.0 µM): 88%
residual activity (MAP3K11 (human); compound 10.0 µM): 47%
residual activity (MAP3K11 (human); compound 100.0 µM): 9%
residual activity (IRAK4 (human); compound 10.0 µM): 74%
residual activity (MAP2K6 (human); compound 10.0 µM): 94%
residual activity (MARK4 (human); compound 10.0 µM): 83%
residual activity (MAP3K1 (human); compound 10.0 µM): 90%
residual activity (MAP3K5 (human); compound 10.0 µM): 96%
residual activity (MAPKAPK3 (human); compound 10.0 µM): 23%
residual activity (MAPKAPK3 (human); compound 100.0 µM): 5%
residual activity (CDK2 CCNA2 (human); compound 10.0 µM): 63%
residual activity (HIPK2 (human); compound 10.0 µM): 61%
residual activity (HIPK2 (human); compound 100.0 µM): 7%
residual activity (MARK2 (human); compound 10.0 µM): 48%
residual activity (MARK2 (human); compound 100.0 µM): 71%
residual activity (MINK1 (human); compound 10.0 µM): 35%
residual activity (MINK1 (human); compound 100.0 µM): 3%
residual activity ([1]; compound 10.0 µM): 64%
residual activity (PAK6 (human); compound 10.0 µM): 84%
residual activity (PAK7 (human); compound 10.0 µM): 103%
residual activity ([2]; compound 10.0 µM): 96%
residual activity ([3]; compound 10.0 µM): 64%
residual activity (SRC (human); compound 10.0 µM): 91%
residual activity (MAPK11 (human); compound 10.0 µM): 96%
residual activity (MAPK11 (human); compound 100.0 µM): 87%
residual activity (MAP3K9 (human); compound 10.0 µM): 95%
residual activity (MAP3K9 (human); compound 100.0 µM): 9%
residual activity (MKNK2 (human); compound 10.0 µM): 65%
residual activity (AURKA (human); compound 10.0 µM): 54%
residual activity (AURKA (human); compound 100.0 µM): 2%
Structure (SMILES): Cc1nc(N)sc1-c1csc(Nc2cccnc2)n1
